Data from PubChem BioAssay (NCI).
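Method: 48-hour compound exposure of cells in 96-well plates, five concentrations, linear interpolation of endpoints. Here, GI50 denotes the concentration required for 50% inhibition of growth. Definition used: TGI = concentration required for complete inhibition of growth.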

What was measured:
Assay in all cases: DTP human tumour cell line panel, 48 h
[1] = test system: A498 renal
[2] = test system: NCI/ADR-RES ovarian
[3] = test system: HS 578T breast

SMILES: C=C(C)[C@@H]1CC[C@]2(C(=O)OCCOCCOCC[P+](c3ccccc3)(c3ccccc3)c3ccccc3)CC[C@]3(C)[C@H](CC[C@@H]4[C@@]5(C)CC[C@H](OC(=O)C(Cl)Cl)C(C)(C)[C@@H]5CC[C@]43C)[C@@H]12
- GI50 [1]: 225 nM
- TGI [1]: 734 nM
- GI50 [2]: 1540 nM
- TGI [2]: 9000 nM
- GI50 [3]: 317 nM
- TGI [3]: 1880 nM
